Read-outs that look alike come from different tables or passages of the source.
Legend:
[1] = test system: human hepatoma cells (PLC/PRF/5 cells); conditions: Hager, reference 66; cited from earlier work
[2] = test system: KB cells; conditions: Hager, reference 66; cited from earlier work
[3] = molecular target: T1, CD-14 receptor (Homo sapiens, UniProt P08571); assay: serum-mediated binding of FITC-labeled lipopolysaccharide to CD-14 transfected Chinese hamster ovary cell lines; format: cell-based; conditions: CD14+ cells
T1 construct: expressed in transfected cells; host or cells: Chinese hamster ovary cell lines
T1 sequence (P08571 20-345): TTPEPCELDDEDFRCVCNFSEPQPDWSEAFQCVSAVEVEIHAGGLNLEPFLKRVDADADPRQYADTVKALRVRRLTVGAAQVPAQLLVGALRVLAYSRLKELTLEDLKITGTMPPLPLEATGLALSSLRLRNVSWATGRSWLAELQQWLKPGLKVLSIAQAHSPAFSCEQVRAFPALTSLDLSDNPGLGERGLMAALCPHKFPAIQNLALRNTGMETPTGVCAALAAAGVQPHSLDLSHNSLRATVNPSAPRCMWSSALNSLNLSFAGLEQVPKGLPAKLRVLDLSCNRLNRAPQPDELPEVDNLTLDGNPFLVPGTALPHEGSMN
Experimental: Methods: The test was performed according to Grunwald (CD-14 als Rezeptor für Endotoxin: in vitro-Untersuchungen zu Bindungsmodalitaten von LPS und zur Beeinflussung der Expression. Dissertation Ernst-Moritz-Arndt-Universität Greifswald 1993). For the tests, cell lines from ovaries of Chinese hamsters were used which express the CD-14 receptor after transfection of the CD-14 gene. The lipopolysaccharide was labeled with FITC so that the binding to the receptor could be determined by measuring the fluorescence intensity.

[4] = test system: influenza virus type A; assay: antiviral activity
[5] = molecular target: angiotensin-converting enzyme (Homo sapiens, UniProt P12821); conditions: in vitro; Hager, reference 39; cited from earlier work
[6] = test system: peritoneal mast cells of rats; conditions: 2 mg/ml; Hager, reference 31; cited from earlier work
[7] = test system: Aeromonas salmonicida subsp. salmonicida 67 A 1; assay: agar diffusion test on fish-pathogenic bacteria; format: cell-based
[8] = test system: Aeromonas hydrophila DSM 30019; assay: agar diffusion test on fish-pathogenic bacteria; format: cell-based
[9] = test system: Vibrio anguillarum ATCC 1188; assay: agar diffusion test on fish-pathogenic bacteria; format: cell-based
[10] = test system: oxygen free-radical release; assay: free-radical scavenging by luminol chemiluminescence in zymosan-stimulated human blood; format: cell-based; conditions: 10 μg/ml
Experimental: The proof was established as follows:
A: […] was preincubated with […] of PBS+luminol (0.33 mM final) at 37° C. for 20 min.
B: 30 μl of human blood was preincubated with […] of PBS+luminol (0.33 mM final) and […] of substance dilution at 37° C. for 20 min.
To A was pipetted 20 μl of a 1:100 dilution of the extract of Example 11 and 20 μl of zymosan (10 mg/ml).
To B was pipetted 20 μl of zymosan (10 mg/ml).
As a control, PBS was used instead of zymosan as a stimulator with and without substance in charges A and B. After intensive mixing, the kinetics of the luminescence were measured over 60 min. The examinations were performed on two different days with blood from two different blood donors.
Methods: The free-radical scavenging function of the active substances of formula 1, ganomycin A and ganomycin B, broadens the possibilities of medicinal use. The proof was established as in the examination of the extracts according to Example 48.

[11] = test system: S. aureus; assay: agar diffusion test
Experimental: In the first stage of examination, the agar diffusion test was employed. The extracts and substances to be tested were respectively dissolved using appropriate solvents (dichloromethane, methanol and water) and applied to filter paper sheets in different concentrations. Comparative sheets soaked with 25 μl of the corresponding solvent served as a control. Ampicillin (10 μg/sheet) was employed as a reference substance. The dried filter paper sheets were finally placed onto agar plates. For the basic screening, nutrient agar II (VEB Immunpraparate, Berlin, Germany) was employed, and for the examination on strains isolated from patient material, Mueller-Hinton II agar (Becton Dickinson Microbiology Systems, Cockeysville, USA) was employed. Using an inoculation wire loop, a pinheadful of test germ culture was suspended in 3 ml of a sterile 0.90% NaCl solution. Subsequently, 200 μl of the germ suspension was added to 20 ml of sterile, liquefied and slightly warm nutrient agar and cast into Petri dishes having a diameter of 10 cm. After placing the sheets onto the congealed agar, the plates were preincubated at 8° C. for about 2 to 3 hours, followed by incubation of the plates in an incubator at 37° C. for 24 hours. Micrococcus flavus was an exception. This culture was stored only at room temperature because the germ reaches its optimum growth at 20° C.
The evaluation of the plates was effected by measuring the diameters of the inhibition halos. All operations were done under aseptic conditions.

[12] = test system: S. haemolyticus; assay: agar diffusion test on pathogens of Gram-positive infections; conditions: S. haemolyticus (multiresistant strains isolated from patient material)
Experimental: (§1) In the first stage of examination, the agar diffusion test was employed. The extracts and substances to be tested were respectively dissolved using appropriate solvents (dichloromethane, methanol and water) and applied to filter paper sheets in different concentrations. Comparative sheets soaked with 25 μl of the corresponding solvent served as a control. Ampicillin (10 μg/sheet) was employed as a reference substance. The dried filter paper sheets were finally placed onto agar plates. For the basic screening, nutrient agar II (VEB Immunpraparate, Berlin, Germany) was employed, and for the examination on strains isolated from patient material, Mueller-Hinton II agar (Becton Dickinson Microbiology Systems, Cockeysville, USA) was employed. Using an inoculation wire loop, a pinheadful of test germ culture was suspended in 3 ml of a sterile 0.90% NaCl solution. Subsequently, 200 μl of the germ suspension was added to 20 ml of sterile, liquefied and slightly warm nutrient agar and cast into Petri dishes having a diameter of 10 cm. After placing the sheets onto the congealed agar, the plates were preincubated at 8° C. for about 2 to 3 hours, followed by incubation of the plates in an incubator at 37° C. for 24 hours. Micrococcus flavus was an exception. This culture was stored only at room temperature because the germ reaches its optimum growth at 20° C. […]

[13] = test system: Enterococci; assay: as above; conditions: Enterococci (multiresistant strains isolated from patient material)
Experimental: as §1

[14] = test system: S. epidermidis
Experimental: Methods: Extracts according to Example 9 in a concentration of 2 mg/l were dropped onto standardized test plates for the resistance assay for the commercially available antibiotics amicazin, trimethroprim and fusidinic acid (Sensi-Disk Antibiotics Test Plates, Becton Dickinson Microbiology Systems, Cockeysville, USA). The antibacterial activity was determined according to Example 1 on multiresistant coagulase-negative staphylococci isolated from patient material.

Chain of angiotensin-converting enzyme (P12821 30-1306, species assumed): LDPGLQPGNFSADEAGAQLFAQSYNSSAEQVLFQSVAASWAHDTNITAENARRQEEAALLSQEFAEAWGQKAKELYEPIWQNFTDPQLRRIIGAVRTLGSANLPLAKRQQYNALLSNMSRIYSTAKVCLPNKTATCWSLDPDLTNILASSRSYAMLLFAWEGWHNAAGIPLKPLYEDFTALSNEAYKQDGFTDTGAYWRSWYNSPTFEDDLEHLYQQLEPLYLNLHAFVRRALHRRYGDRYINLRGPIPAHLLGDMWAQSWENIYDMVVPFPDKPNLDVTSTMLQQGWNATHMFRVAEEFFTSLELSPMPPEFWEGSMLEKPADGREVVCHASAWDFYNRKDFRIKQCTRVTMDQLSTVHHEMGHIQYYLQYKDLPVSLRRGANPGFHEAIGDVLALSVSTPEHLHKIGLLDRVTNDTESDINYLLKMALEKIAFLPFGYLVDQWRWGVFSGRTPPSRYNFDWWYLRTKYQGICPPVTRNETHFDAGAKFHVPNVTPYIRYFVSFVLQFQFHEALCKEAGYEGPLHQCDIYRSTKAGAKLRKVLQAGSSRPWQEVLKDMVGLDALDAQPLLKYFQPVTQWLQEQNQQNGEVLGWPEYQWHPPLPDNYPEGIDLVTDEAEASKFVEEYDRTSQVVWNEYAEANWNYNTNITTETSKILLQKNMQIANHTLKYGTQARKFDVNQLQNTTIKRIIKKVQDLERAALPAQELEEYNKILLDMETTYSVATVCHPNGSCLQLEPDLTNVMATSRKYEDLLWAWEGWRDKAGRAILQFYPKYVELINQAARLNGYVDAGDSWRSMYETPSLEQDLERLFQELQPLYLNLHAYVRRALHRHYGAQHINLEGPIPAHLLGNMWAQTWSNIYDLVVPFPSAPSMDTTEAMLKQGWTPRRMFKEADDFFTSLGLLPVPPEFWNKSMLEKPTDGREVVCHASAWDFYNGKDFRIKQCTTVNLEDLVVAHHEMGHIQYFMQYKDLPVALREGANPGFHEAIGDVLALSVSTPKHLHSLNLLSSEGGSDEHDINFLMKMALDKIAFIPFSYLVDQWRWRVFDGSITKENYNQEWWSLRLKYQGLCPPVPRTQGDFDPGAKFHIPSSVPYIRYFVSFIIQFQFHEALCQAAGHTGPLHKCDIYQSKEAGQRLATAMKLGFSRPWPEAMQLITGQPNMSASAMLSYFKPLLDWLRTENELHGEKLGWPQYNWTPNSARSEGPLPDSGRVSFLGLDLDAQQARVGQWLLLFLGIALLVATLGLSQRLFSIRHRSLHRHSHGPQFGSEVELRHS

For ganoderaldehyde A, the “ED50 for the hepatoma cells” value [1] is given as 10.99 µg/mL and the “ED50 for KB cells” value [2] is given as 9.75 µg/mL.

In the case of `C/C(=C\CC[C@@H](C)[C@H]1CC[C@@]2(C)C3=C(CC[C@]12C)[C@@]1(C)CC[C@H](O)C(C)(C)[C@@H]1CC3=O)CO` [Ganoderone B, 3,26-dihydroxylanosta-8,24-diene-7-one], the “inhibition of the lipopolysaccharide binding (in words)” value (from here on “inhibition … (in words)”) [3] is reported as “inhibits” and the “antiviral activity against influenza virus type A” value [4] is reported as “has antiviral activity”.

In the case of `CC(=O)O[C@@H]1C(=O)C2=C(C(=O)C[C@H]3C(C)(C)C(=O)CC[C@]23C)[C@]2(C)C(=O)C[C@H]([C@H](C)CC(=O)CC(C)C(=O)O)[C@@]12C` (some centres unmarked) [ganoderic acid F], the IC50 [5] is given as 4.7 µM.

In the case of `CC(CC(=O)C[C@@H](C)[C@H]1CC(=O)[C@@]2(C)C3=C(C(=O)C[C@]12C)[C@@]1(C)CCC(=O)C(C)(C)[C@@H]1C[C@@H]3O)C(=O)O` (some centres unmarked) [ganoderic acid D], the “reduction of 48/80-induced histamine release” value [6] is listed as 80% and the “reduction of Con-A-induced histamine release” value [6] is listed as 80%.

For `CC(C)[C@@H](C)C=C[C@@H](C)[C@H]1CC[C@H]2C3=CCC4C[C@H](O)[C@@H](O)C[C@]4(C)[C@@]3(O)CC[C@]12C` (stereo partly drawn) [ergosta-7,22-diene-2β,3α,9α-triol], the “ED50 for the hepatoma cells” value [1] is listed as 1170 µg/mL and the “ED50 for KB cells” value [2] is listed as 0.89 µg/mL.

In the case of ganoderic acid C, the “reduction of 48/80-induced histamine release” value [6] is given as 70% and the “reduction of Con-A-induced histamine release” value [6] is given as 85%.

For `CC(=CCCC(C)=CCCC(=CCc1cc(O)ccc1O)C(=O)O)CO` [Ganomycin A, 2-[2-(2,5-dihydroxyphenyl)ethylidene]-11-hydroxy-6,10-dimethylundeca-5,9-dienic acid], the “Diameter of inhibition halo” value [7] was 10 mm, the “Diameter of inhibition halo” value [8] was 15 mm and the “Diameter of inhibition halo” value [9] was 10 mm. For the same molecule, the “inhibition … (in words)” value [3] was “causes inhibition” and the “luminol-induced and spontaneous oxygen free-radical release” value [10] was “inhibit”.

In the case of `CC(C)=CCCC(C)=CCCC(=CCc1cc(O)ccc1O)C(=O)O` [Ganomycin B, 2-[2-(2,5-dihydroxyphenyl)ethylidene]-6,10-dimethylundeca-5,9-dienic acid], the “Diameter of inhibition halo” value [7] is reported as 12 mm, the “Diameter of inhibition halo” value [8] is reported as 17 mm and the “Diameter of inhibition halo” value [9] is reported as 26 mm. The “inhibition … (in words)” value [3] was “causes inhibition”, the “luminol-induced and spontaneous oxygen free-radical release” value [10] was “inhibit” and the Inhibition halo ([11]; S. aureus (MRSA strains isolated from patient material)) was 10-16 mm. It also gave an Inhibition halo ([11]; S. aureus ATCC 6538) of 30 mm, an Inhibition halo ([11]; S. aureus ATCC 25923) of 25 mm and an Inhibition halo ([11]; S. aureus ATCC 29213) of 22 mm. The Inhibition halo ([11]; S. aureus reference strain “North-German Strain” (Smith Kline Beecham)) was 16 mm, the Inhibition halo [12] was 12-16 mm and the Inhibition halo [13] was 10-14 mm. It also gave an Inhibition halo ([14]; S. epidermidis 125, extract 2 mg/l dropped onto antibiotic test plates) of 16 mm, an Inhibition halo ([14]; S. epidermidis 473, extract 2 mg/l dropped onto antibiotic test plates) of 20 mm and an Inhibition halo ([14]; S. epidermidis 847, extract 2 mg/l dropped onto antibiotic test plates) of 16 mm. For the same molecule, the Inhibition halo ([14]; S. epidermidis (multiresistant strains isolated from patient material)) was 16-20 mm.
